# Patent US12077503B2, “Substituted cyclic amides and their use as herbicides” (FMC CORPORATION, priority 2015, dated 2024)
# Assays:
# Format in all cases: in vivo
# Kochia (Kochia scoparia) [1] = assay: Test A preemergence
# Text: (§1) Seeds of plant species selected from barnyardgrass (Echinochloa crus-galli), Kochia (Kochia scoparia), ragweed (common ragweed, Ambrosia elatior), ryegrass, Italian (Italian ryegrass, Lolium multiflorum), crabgrass, large (Digitaria sanguinalis), giant foxtail (Setaria faberii), green foxtail (Setaria viridis), morningglory (Ipomoea spp.), pigweed (Amaranthus retroflexus), velvetleaf (Abutilon theophrasti), wheat (Triticum aestivum), and corn (Zea mays) were planted into a blend of loam soil and sand and treated preemergence with a directed soil spray using test chemicals formulated in anon-phytotoxic solvent mixture which included a surfactant.
# (§2) At the same time, plants selected from these crop and weed species and also blackgrass (Alopecurus myosuroides), and Galium (catchweed bedstraw, Galium aparine) were planted in pots containing the same blend of loam soil and sand and treated with postemergence applications of test chemicals formulated in the same manner. Plants ranged in height from 2 to 10 cm and were in the one- to two-leaf stage for the postemergence treatment. Treated plants and untreated controls were maintained in a greenhouse for approximately 10 d, after which time all treated plants were compared to untreated controls and visually evaluated for injury. Plant response ratings, summarized in Table A, are based on a 0 to 100 scale where 0 is no effect and 100 is complete control. A dash (-) response means no test result.
# [2] = system: barnyardgrass (Echinochloa crus-galli); assay: Test A preemergence
# Text: as §1, §2
# [3] = system: giant foxtail (Setaria faberii); assay: Test A preemergence
# Text: as §1, §2
# [4] = system: pigweed (Amaranthus retroflexus); assay: Test A preemergence
# Text: as §1, §2
# [5] = system: ragweed (common ragweed, Ambrosia elatior); assay: Test A preemergence
# Text: as §1, §2
# [6] = system: ryegrass, Italian (Italian ryegrass, Lolium multiflorum); assay: Test A preemergence
# Text: as §1, §2
# [7] = system: Galium (catchweed bedstraw, Galium aparine); assay: Test A postemergence
# Text: as §1, §2
# Kochia (Kochia scoparia) [8] = assay: Test A postemergence
# Text: as §1, §2
# [9] = system: barnyardgrass (Echinochloa crus-galli); assay: Test A postemergence
# Text: as §1, §2
# [10] = system: blackgrass (Alopecurus myosuroides); assay: Test A postemergence
# Text: as §1, §2
# corn (Zea mays) = assay: Test A postemergence
# Text: as §1, §2
# [11] = system: giant foxtail (Setaria faberii); assay: Test A postemergence
# Text: as §1, §2
# [12] = system: pigweed (Amaranthus retroflexus); assay: Test A postemergence
# Text: as §1, §2
# [13] = system: ragweed (common ragweed, Ambrosia elatior); assay: Test A postemergence
# Text: as §1, §2
# [14] = system: ryegrass, Italian (Italian ryegrass, Lolium multiflorum); assay: Test A postemergence
# Text: as §1, §2
# [15] = system: wheat (Triticum aestivum); assay: Test A postemergence
# Text: as §1, §2
# [16] = system: barnyardgrass (Echinochloa crus-galli); assay: Test B flooded paddy test; conditions: Flood, 0 to 100 scale where 0 is no effect and 100 is complete control, 13 to 15 d
# Description: (§3) Plant species in the flooded paddy test selected from rice (Oryra sativa), sedge, umbrella (small-flower umbrella sedge, Cyperus difformis), ducksalad (Heteranthera limosa), and barnyardgrass (Echinochloa crus-galli) were grown to the 2-leaf stage for testing. At time of treatment, test pots were flooded to 3 cm above the soil surface, treated by application of test compounds directly to the paddy water, and then maintained at that water depth for the duration of the test. Treated plants and controls were maintained in a greenhouse for 13 to 15 d, after which time all species were compared to controls and visually evaluated. Plant response ratings, summarized in Table B, are based on a scale of 0 to 100 where 0 is no effect and 100 is complete control. A dash (-) response means no test result.
# [17] = system: ducksalad (Heteranthera limosa); assay: Test B flooded paddy test; conditions: Flood, 0 to 100 scale where 0 is no effect and 100 is complete control, 13 to 15 d
# Description: as §3
# rice (Oryra sativa) = assay: Test B flooded paddy test; conditions: Flood, 0 to 100 scale where 0 is no effect and 100 is complete control, 13 to 15 d
# Description: as §3
# [18] = system: sedge, umbrella (small-flower umbrella sedge, Cyperus difformis); assay: Test B flooded paddy test; conditions: Flood, 0 to 100 scale where 0 is no effect and 100 is complete control, 13 to 15 d
# Description: as §3
# [19] = 125 g ai/ha, Preemergence, visual injury after approximately 10 d, 0 to 100 scale where 0 is no effect and 100 is complete control
# [20] = Preemergence, 500 g ai/ha, visual injury approx. 10 d
# [21] = 125 g ai/ha, postemergence, visual injury rating on 0 to 100 scale (0 no effect, 100 complete control), approx. 10 d
# [22] = Postemergence, 500 g ai/ha, 0 to 100 scale where 0 is no effect and 100 is complete control
# [23] = 125 g ai/ha, preemergence, visual rating after approx. 10 d, 0 to 100 scale where 0 is no effect and 100 is complete control
# [24] = 500 g ai/ha, preemergence, 0 to 100 scale, 0 = no effect, 100 = complete control
# [25] = 125 g ai/ha, postemergence, visual injury after approximately 10 d, 0 to 100 scale (0 no effect, 100 complete control)
# [26] = 500 g ai/ha, postemergence, visual injury, 0 to 100 scale (0 no effect, 100 complete control), approx. 10 d
smiles,measurement,setting,value
CS(=O)(=O)c1ccccc1NC(=O)C1C(=O)NCC1c1ccc(C2CC2)cc1 (racemic) [Compound 502],"Plant response rating, Kochia",Kochia (Kochia scoparia) [1]; [19],0
same,"Kochia plant response rating (0 to 100 scale, 0 is no effect, 100 is complete control)",Kochia (Kochia scoparia) [1]; [20],70
same,"Plant response rating, Barnyardgrass",[2]; [19],0
same,"Barnyardgrass plant response rating (0 to 100 scale, 0 is no effect, 100 is complete control)",[2]; [20],60
same,"Plant response rating, Foxtail, Giant",[3]; [19],80
same,"Foxtail, Giant plant response rating (0 to 100 scale, 0 is no effect, 100 is complete control)",[3]; [20],90
same,"Plant response rating, Pigweed",[4]; [19],0
same,"Pigweed plant response rating (0 to 100 scale, 0 is no effect, 100 is complete control)",[4]; [20],30
same,"Plant response rating, Ragweed",[5]; [19],0
same,"Ragweed plant response rating (0 to 100 scale, 0 is no effect, 100 is complete control)",[5]; [20],50
same,"Plant response rating, Ryegrass, Italian",[6]; [19],0
same,"Ryegrass, Italian plant response rating (0 to 100 scale, 0 is no effect, 100 is complete control)",[6]; [20],30
same,Galium plant response rating,[7]; [21],20
same,"Plant response rating, Galium",[7]; [22],50
same,Kochia plant response rating,Kochia (Kochia scoparia) [8]; [21],0
same,"Plant response rating, Kochia",Kochia (Kochia scoparia) [8]; [22],20
same,Barnyardgrass plant response rating,[9]; [21],0
same,"Plant response rating, Barnyardgrass",[9]; [22],60
same,Blackgrass plant response rating,[10]; [21],0
same,"Plant response rating, Blackgrass",[10]; [22],20
same,Corn plant response rating,corn (Zea mays); [21],0
same,"Plant response rating, Corn",corn (Zea mays); [22],30
same,"Foxtail, Giant plant response rating",[11]; [21],20
same,"Plant response rating, Foxtail, Giant",[11]; [22],50
same,Pigweed plant response rating,[12]; [21],0
same,"Plant response rating, Pigweed",[12]; [22],0
same,Ragweed plant response rating,[13]; [21],0
same,"Plant response rating, Ragweed",[13]; [22],0
same,"Ryegrass, Italian plant response rating",[14]; [21],0
same,"Plant response rating, Ryegrass, Italian",[14]; [22],30
same,Wheat plant response rating,[15]; [21],0
same,"Plant response rating, Wheat",[15]; [22],0
same,"Plant response rating, Barnyardgrass",[16]; 250 g ai/ha,0
same,"Plant response rating, Ducksalad",[17]; 250 g ai/ha,70
same,"Plant response rating, Rice",rice (Oryra sativa); 250 g ai/ha,0
same,"Plant response rating, Sedge, Umbrella",[18]; 250 g ai/ha,0
O=C1NCC(c2cccc3ccccc23)C1C(=O)Nc1cccc(F)c1F (racemic) [Compound 711],"Plant response rating, Kochia",Kochia (Kochia scoparia) [1]; [23],0
same,"Plant response rating, Kochia",Kochia (Kochia scoparia) [1]; [24],0
same,"Plant response rating, Barnyardgrass",[2]; [23],0
same,"Plant response rating, Barnyardgrass",[2]; [24],0
same,"Plant response rating, Foxtail, Giant",[3]; [23],0
same,"Plant response rating, Foxtail, Giant",[3]; [24],0
same,"Plant response rating, Pigweed",[4]; [23],0
same,"Plant response rating, Pigweed",[4]; [24],0
same,"Plant response rating, Ragweed",[5]; [23],0
same,"Plant response rating, Ragweed",[5]; [24],0
same,"Plant response rating, Ryegrass, Italian",[6]; [23],0
same,"Plant response rating, Ryegrass, Italian",[6]; [24],0
same,"Plant response rating, Galium",[7]; [25],0
same,"Plant response rating, Galium",[7]; [26],0
same,"Plant response rating, Kochia",Kochia (Kochia scoparia) [8]; [25],0
same,"Plant response rating, Kochia",Kochia (Kochia scoparia) [8]; [26],0
same,"Plant response rating, Barnyardgrass",[9]; [25],0
same,"Plant response rating, Barnyardgrass",[9]; [26],0
same,"Plant response rating, Blackgrass",[10]; [25],0
same,"Plant response rating, Blackgrass",[10]; [26],0
same,"Plant response rating, Corn",corn (Zea mays); [25],0
same,"Plant response rating, Corn",corn (Zea mays); [26],0
same,"Plant response rating, Foxtail, Giant",[11]; [25],0
same,"Plant response rating, Foxtail, Giant",[11]; [26],0
same,"Plant response rating, Pigweed",[12]; [25],0
same,"Plant response rating, Pigweed",[12]; [26],0
same,"Plant response rating, Ragweed",[13]; [25],0
same,"Plant response rating, Ragweed",[13]; [26],0
same,"Plant response rating, Ryegrass, Italian",[14]; [25],0
same,"Plant response rating, Ryegrass, Italian",[14]; [26],0
same,"Plant response rating, Wheat",[15]; [25],0
same,"Plant response rating, Wheat",[15]; [26],0
same,"Plant response rating, Barnyardgrass",[16]; 500 g ai/ha,0
same,"Plant response rating, Ducksalad",[17]; 500 g ai/ha,60
same,"Plant response rating, Rice",rice (Oryra sativa); 500 g ai/ha,0
same,"Plant response rating, Sedge, Umbrella",[18]; 500 g ai/ha,0
